What was measured:
[1] = test system: native DUBs (UCHL1, USP30 and JOSD1); assay: Competitive activity-based protein profiling with quantitative mass spectrometry in HEK-293T lysates; assay type: binding; conditions: block of labeling by DUB activity-based probes
Experimental: Activity Based Protein Profiling (ABPP) assay. DUB targets were investigated using competitive ABPP with quantitative mass spectrometry. The ability to block labeling of 50 DUBs by ubiquitin-based DUB activity-based probes was quantitatively measured in HEK-293T lysates.
DUB ABPP of Compound Targets. Activity-based probes biotin-Ub-PA (UbiQ-076) and biotin-Ub-VME (UbiQ-054) were obtained from UbiQ Bio. DUB Activity based protein profiling was performed using conditions modified from those in Schauer, et al., 2020, Scientific Reports, 10:1-15, based on work by Lawson, et al., 2017 Oncotarget, 8:51296-316. HEK 293T cells were lysed (50 mM Tris pH 8.0, 150 mM NaCl, 5 mM MgC2, 0.5 mM EDTA, 0.5% NP-40, 10% glycerol, 1 mM tris(2-carboxyethyl)phosphine (TCEP), protease and phosphatase inhibitors) and the lysate was clarified by centrifugation, then diluted to 10 mg/mL. 200 μL aliquots were incubated at the indicated compound concentrations or DMSO for 5 hours at room temperature, final DMSO concentration 0.5%. Afterwards, the treated lysates were incubated with 1 μM each of Biotin-Ub-PA and Biotin-Ub-VME for 90 minutes at room temperature. […]
Specifically, quantitative mass spectrometry was utilized to measure the ability of compounds 1 and 2 to block labeling of […] native DUBs by ubiquitin-based DUB activity-based probes in HEK-293T lysates. […]

SOCS1 = SOCS1 (Homo sapiens (Human), UniProt O15524); assay: SOCS1 expression in HEL cells by western blotting; assay type: cell-based; conditions: 5 μM
Experimental: With JOSD1 as the prime candidate, JOSD1 binding and inhibition was evaluated by the compounds. First, targeted engagement was confirmed by showing competition with DUB ABP in HEL-FLAG-HA-JOSD1 cells following treatment with the two agents (FIG. 4D). The structures for negative control compounds 66 and 67 are shown below. In addition, the effects of small molecule inhibition of JOSD1 was investigated on MCL-1, an established substrate of JOSD1 (Wu, et al., 2020 Cell Death Differ., 27(1):55-70). […] Other exemplary compounds that inhibit DUBs are listed below in Table 3 (See Supra, ¶ [0063] for structures)

[2] = test system: JAK2-V617F-positive primary AML patient samples; assay: AML liquid culture proliferation, primary patient samples; assay type: cell-based, human
Excerpt: AML liquid culture proliferation and colony assay studies. Frozen vials of bone marrow from AML patients identified as harboring JAK2-V617F were previously Ficoll®-purified to obtain mononuclear cells and thawed prior to use in studies.

normal bone marrow cells = assay: Normal bone marrow colony assay; assay type: cell-based, human
Experimental: Normal human bone marrow was also analyzed in a colony assay: 24-well plates seeded with 200 cells/well in MethoCult™ H4434 Classic (methylcellulose-based medium with recombinant cytokines for human cells) ([…] Technologies™ INC., Vancouver, British Columbia, Canada). The plates contained targeted JOSD1 inhibitors at the indicated concentrations. Plates were incubated at 37° C. in 5% CO2 for >1 week, and then myeloid and erythroid colonies (early progenitors with erythroid and myeloid components: colony-forming unit for granulocytes and macrophages (CFU-GM), CFU-erythroid (E), BFU-E, and CFU-granulocyte, erythroid, macrophage, megakaryocyte (GEMM) were counted on an inverted microscope.

- SOCS1 expression (SOCS1): decrease
- normal bone marrow colony formation (normal bone marrow cells; 5 μM or higher): significantly impaired
- normal bone marrow colony formation (normal bone marrow cells; concentrations up to 2.5 μM): colonies were able to form
SMILES: Cc1noc(C)c1-c1cccc2nc(NC(=O)[C@H]3CCN(C#N)C3)sc12 [Compound 2, (S)-1-cyano-N-(7-(3,5-dimethylisoxazol-4-yl)benzo[d]thiazol-2-yl)pyrrolidine-3-carboxamide]
- target engagement of UCHL1, USP30 and JOSD1 [1]: dose-dependent target engagement
- potency against JAK2-V617F-positive cells versus normal bone marrow cells ([2]; compound 2: 24 h treatment, ruxolitinib: FIG. 16C): higher potency exhibited against JAK2-V617F-positive cells than normal bone marrow cells
- primary cell viability ([2]; starting at concentrations around 1 μM): concentration-dependent decrease in primary cell viability

— US20240335427A1, “SMALL MOLECULE INHIBITION OF DEUBIQUITINATING ENZYME JOSEPHIN DOMAIN CONTAINING 1 (JOSD1) AS A TARGETED THERAPY FOR LEUKEMIAS WITH MUTANT JANUS KINASE 2 (JAK2)” (DANA-FARBER CANCER INSTITUTE, INC., priority 2021, published 2024)
